US7375246B2, “Sulfhydral containing compounds and methods of using the same” (Regenesis Bioremediation Products Inc., priority 2003, dated 2008)

Assays:
[1] = Example C: reduction of As in arsenate solution in a flask, atomic absorption
Description: 10.02 grams of ferrous cysteinate synthesized as in 1.4 were added to a 250 ml. flask which contained 150 ml of 32 ppm of As initially added as arsenic trioxide. The 32-ppm solution of As was prepared by using 0.08 grams of arsenic trioxide to which 3.0 grams of concentrated hydrochloric acid was added. This prepared the soluble arsenate. The solution was heated and diluted to one liter with distilled water. The As concentration was measured over time using atomic absorption.

[2] = Example D: two-flask liquid/soil system with chromated copper arsenate, chromium
Description: (§1) A system which had two connected 250 ml flasks, one with liquid and soil and the other with a reservoir of liquid, was used. The liquid flowed between the 2 flasks. Samples were taken from the flask without the soil to determine the amount of Cu, As and Cr present in the aqueous phase. The liquid in the flask without soil was sampled periodically and the Cu, Cr and As content measured by Atomic Absorption Spectroscopy. A unimolar ratio of copper chromate and copper arsenate was used as being representative of chromated copper arsenate. The level of contamination was selected so that the As component was about 30 mg/L. After the system was set up the As component was determined to be 28.3 mg/L. The Cu and Cr were approximately 25 mg/L and 15.5 mg/L, respectively.
(§2) Ferrous cysteinate and sorbitol tricysteinate were both used in this system.

[3] = Example D: two-flask liquid/soil system with chromated copper arsenate, copper
Description: as §1, §2

[4] = Example E: Aquifer Simulation Vessel (ASV), chromated copper arsenate, copper; conditions: for Copper concentration in aqueous phase: initial 4.2
Description: (§3) A tube 6 foot long and 6 inches in diameter was packed with soil. These tubes simulate the flow in an aquifer below ground and are referred to as Aquifer Simulation Vessels (ASV). The ASV has sample ports along the bottom at every 6-inch interval to allow sampling as water flows through the tube. Contaminated water is allowed to flow through the tube. As the water flows through the tube, the water within the space pockets of the soil is tested and when the soil with the tube is fully contaminated the flow was stopped. The soil pockets (pores) were full of contaminants from the water. At that point either ferrous cysteinate or sorbitol hexacysteinate was injected just ahead of the first port with no flow in the system.
(§4) A separate tube was used for each of the two materials tested.
(§5) Initially the soil pockets (pores) were filled with this solution as described. Either ferrous cysteinate or sorbitol hexacysteinate was injected into the soil containing tube. The concentration of contaminants at each sample port was measured over a 30 day period. The system was then flushed with fresh water to determine if the removed metals are “redistributed” or “redissolved” in the water (i.e. so called “rebound”). This measure determined the ability of the compounds to permanently remove the contaminants.

[5] = Example E: Aquifer Simulation Vessel (ASV), chromated copper arsenate, arsenic; conditions: for Arsenic concentration in aqueous phase: initial 25.7
Description: as §3, §4, §5

[6] = Example D: two-flask liquid/soil system with chromated copper arsenate, arsenic
Description: as §1, §2

[7] = Example E: Aquifer Simulation Vessel (ASV), chromated copper arsenate, chromium; conditions: for Chromium concentration in aqueous phase / Cr concentration: initial 15
Description: as §3, §4, §5

Substance: ferrous cysteinate [FeC]
- time in which the concentration of As was reduced by half ([1]; 10.02 grams in 150 ml of 32 ppm As): less than 45 hours
- concentration of As after treatment ([1]; from 32 ppm, in less than 45 hours): less than 15 ppm
- remediation of chromium in combined solution [2]: remediated
- remediation of copper in combined solution [3]: remediated
- remediation of Cu in ASV [4]: effective remediation
- Copper concentration in aqueous phase ([4]; Port 1, Day 5): 0.3 mg/L
- Copper concentration in aqueous phase ([4]; Port 1, Day 8): 0.2 mg/L
- Copper concentration in aqueous phase ([4]; Port 1, Day 13): 0.1 mg/L
- Copper concentration in aqueous phase ([4]; Port 1, Day 16): 0.1 mg/L
- Copper concentration in aqueous phase ([4]; Port 1, Day 20): 0.0 mg/L
- Copper concentration in aqueous phase ([4]; Port 1, Day 22): 0.1 mg/L
- Copper concentration in aqueous phase ([4]; Port 1, Day 27): 0.0 mg/L
- Copper concentration in aqueous phase ([4]; Port 5, Day 5): 0.3 mg/L
- Copper concentration in aqueous phase ([4]; Port 5, Day 8): 0.2 mg/L
- Copper concentration in aqueous phase ([4]; Port 5, Day 13): 0.1 mg/L
- Copper concentration in aqueous phase ([4]; Port 5, Day 16): 0.0 mg/L
- Copper concentration in aqueous phase ([4]; Port 5, Day 20): 0.0 mg/L
- Copper concentration in aqueous phase ([4]; Port 5, Day 22): 0.0 mg/L
- Copper concentration in aqueous phase ([4]; Port 5, Day 27): 0.0 mg/L
- Copper concentration in aqueous phase ([4]; Port 10, Day 5): 0.1 mg/L
- Copper concentration in aqueous phase ([4]; Port 10, Day 8): 0.1 mg/L
- Copper concentration in aqueous phase ([4]; Port 10, Day 13): 0.0 mg/L
- Copper concentration in aqueous phase ([4]; Port 10, Day 16): 0.0 mg/L
- Copper concentration in aqueous phase ([4]; Port 10, Day 20): 0.0 mg/L
- Copper concentration in aqueous phase ([4]; Port 10, Day 22): 0.0 mg/L
- Copper concentration in aqueous phase ([4]; Port 10, Day 27): 0.0 mg/L
- remediation of As in ASV [5]: effective remediation
- Arsenic concentration in aqueous phase ([5]; Port 1, Day 5): 25.8 mg/L
- Arsenic concentration in aqueous phase ([5]; Port 1, Day 8): 10.9 mg/L
- Arsenic concentration in aqueous phase ([5]; Port 1, Day 13): 6.8 mg/L
- Arsenic concentration in aqueous phase ([5]; Port 1, Day 16): 3.6 mg/L
- Arsenic concentration in aqueous phase ([5]; Port 1, Day 20): 3.3 mg/L
- Arsenic concentration in aqueous phase ([5]; Port 1, Day 22): 1.1 mg/L
- Arsenic concentration in aqueous phase ([5]; Port 1, Day 27): 0.6 mg/L
- Arsenic concentration in aqueous phase ([5]; Port 5, Day 5): 23.1 mg/L
- Arsenic concentration in aqueous phase ([5]; Port 5, Day 8): 9.8 mg/L
- Arsenic concentration in aqueous phase ([5]; Port 5, Day 13): 6.8 mg/L
- Arsenic concentration in aqueous phase ([5]; Port 5, Day 16): 3.5 mg/L
- Arsenic concentration in aqueous phase ([5]; Port 5, Day 20): 3.0 mg/L
- Arsenic concentration in aqueous phase ([5]; Port 5, Day 22): 0.9 mg/L
- Arsenic concentration in aqueous phase ([5]; Port 5, Day 27): 0.5 mg/L
- Arsenic concentration in aqueous phase ([5]; Port 10, Day 5): 23.9 mg/L
- Arsenic concentration in aqueous phase ([5]; Port 10, Day 8): 7.7 mg/L
- Arsenic concentration in aqueous phase ([5]; Port 10, Day 13): 5.4 mg/L
- Arsenic concentration in aqueous phase ([5]; Port 10, Day 16): 2.8 mg/L
- Arsenic concentration in aqueous phase ([5]; Port 10, Day 20): 2.9 mg/L
- Arsenic concentration in aqueous phase ([5]; Port 10, Day 22): 0.8 mg/L
- Arsenic concentration in aqueous phase ([5]; Port 10, Day 27): 0.5 mg/L
- remediation of arsenic in combined solution [6]: remediated
- remediation of Cr in ASV [7]: effective remediation
- Chromium concentration in aqueous phase ([7]; Port 1, Day 8): 5.8 mg/L
- Chromium concentration in aqueous phase ([7]; Port 1, Day 13): 3.4 mg/L
- Chromium concentration in aqueous phase ([7]; Port 1, Day 16): 1.4 mg/L
- Chromium concentration in aqueous phase ([7]; Port 1, Day 20): 0.7 mg/L
- Chromium concentration in aqueous phase ([7]; Port 1, Day 22): 1.1 mg/L
- Chromium concentration in aqueous phase ([7]; Port 1, Day 27): 1.0 mg/L
- Chromium concentration in aqueous phase ([7]; Port 5, Day 8): 4.8 mg/L
- Chromium concentration in aqueous phase ([7]; Port 5, Day 13): 1.3 mg/L
- Chromium concentration in aqueous phase ([7]; Port 5, Day 16): 0.9 mg/L
- Chromium concentration in aqueous phase ([7]; Port 5, Day 20): 0.6 mg/L
- Chromium concentration in aqueous phase ([7]; Port 5, Day 22): 1.0 mg/L
- Chromium concentration in aqueous phase ([7]; Port 5, Day 27): 0.9 mg/L
- Chromium concentration in aqueous phase ([7]; Port 10, Day 8): 5.2 mg/L
- Chromium concentration in aqueous phase ([7]; Port 10, Day 13): 0.8 mg/L
- Chromium concentration in aqueous phase ([7]; Port 10, Day 16): 0.6 mg/L
- Chromium concentration in aqueous phase ([7]; Port 10, Day 20): 0.5 mg/L
- Chromium concentration in aqueous phase ([7]; Port 10, Day 22): 0.9 mg/L
- Chromium concentration in aqueous phase ([7]; Port 10, Day 27): 0.7 mg/L
- Cr concentration ([7]; port 1, day 30): 0.7 mg/L
- Cr concentration ([7]; port 5, day 30): 0.4 mg/L
- Cr concentration ([7]; port 10, day 30): 0.4 mg/L

Substance: sorbitol tricysteinate
- remediation of chromium in combined solution [2]: remediated
- remediation of copper in combined solution [3]: remediated
- remediation of arsenic in combined solution [6]: remediated
